Where two headings read alike, the source gives them in different places.
Assays:
[1] = system: S. aureus LAC MRSA (Sa LAC); experiment: MIC, broth microdilution, Sa LAC; assay type: cell-based; settings: Staphylococcus aureus, read-out: Minimum inhibitory concentration (MIC) Sa LAC
Description: (§1) The broth microdilution method was utilized to determine MIC values of novel thiazole derivatives against different clinically important Gram-positive bacteria according to the guidelines outlined by the Clinical and Laboratory Standards Institute (CLSI) as reported in our recent papers.^1-5 The starting concentration of compounds for MIC determination was 64 μg/mL serially diluted down the wells and the MIC values were recorded in duplicates in three independent experiments on different days.

[2] = system: S. aureus ATCC 25923 (Sa 23); experiment: MIC, broth microdilution, Sa 23; assay type: cell-based; settings: for MIC: Staphylococcus aureus
Description: as §1

[3] = system: S. aureus subsp. aureus Rosenbach ATCC 25904 (SA Newman); experiment: MIC, broth microdilution, SA Newman; assay type: cell-based; settings: for MIC: Staphylococcus aureus, read-out: Minimum inhibitory concentration (MIC) Sa Newman
Description: as §1

[4] = system: E. faecalis ATCC 29212 (Efs 12); experiment: MIC, broth microdilution, Efs 12; assay type: cell-based; settings: for MIC: Enterococcus faecalis
Description: as §1

[5] = system: S. aureus ATCC 33592 (Sa 92); experiment: MIC, broth microdilution, Sa 92; assay type: cell-based; settings: Staphylococcus aureus
Description: as §1

[6] = system: S. aureus ATCC 33591 (Sa 91); experiment: MIC, broth microdilution, Sa 91; assay type: cell-based; settings: for MIC: Staphylococcus aureus
Description: as §1

[7] = system: S. aureus ATCC BAA-2312 (Sa 12); experiment: MIC, broth microdilution, Sa 12; assay type: cell-based; settings: Staphylococcus aureus
Description: as §1

[8] = system: S. aureus ATCC 700699 (Sa 99); experiment: MIC, broth microdilution, Sa 99; assay type: cell-based; settings: for MIC: Staphylococcus aureus
Description: as §1

[9] = system: Sa UAMS-1 MRSA ATCC 49230 (Sa UAMS); experiment: MIC, broth microdilution, Sa UAMS; assay type: cell-based, S. aureus; settings: Staphylococcus aureus
Description: as §1

[10] = system: E. faecalis ATCC 51299 (Efs 99); experiment: MIC, broth microdilution, Efs 99; assay type: cell-based; settings: Enterococcus faecalis, ATCC51299; Table 1, HT series; read-out: Minimum inhibitory concentration (MIC) Efs 99
Description: as §1

[11] = system: B. subtilis ATCC 6633 (Bs); experiment: MIC, broth microdilution, Bs; assay type: cell-based; settings: Bacillus subtilis, ATCC6633; Table 1, HT series; read-out: Minimum inhibitory concentration (MIC) Bs
Description: as §1

[12] = system: E. faecium ATCC 700221 (Efm 21); experiment: MIC, broth microdilution, Efm 21; assay type: cell-based; settings: Enterococcus faecium, ATCC700221, Table 1, HT series; read-out: Minimum inhibitory concentration (MIC) Efm 21
Description: as §1

[13] = system: S. aureus subsp. aureus Rosenbach BAA-1717 (Sa USA 300); experiment: MIC, broth microdilution, Sa USA 300; assay type: cell-based; settings: Staphylococcus aureus
Description: as §1

[14] = system: S. epidermidis ATCC 700296 (Se); experiment: MIC, broth microdilution, Se; assay type: cell-based; settings: Staphylococcus epidermidis
Description: as §1

[15] = ATCC25923, Table 1, HT series, replicates from different days separated by comma, read-out: Minimum inhibitory concentration (MIC) Sa 23
[16] = Table 1, HT series, replicates from different days separated by comma
[17] = ATCC29212, Table 1, HT series, replicates from different days separated by comma, read-out: Minimum inhibitory concentration (MIC) Efs 12
[18] = ATCC33592, Table 1, HT series, read-out: Minimum inhibitory concentration (MIC) Sa 92
[19] = ATCC33591, Table 1, HT series, read-out: Minimum inhibitory concentration (MIC) Sa 91
[20] = ATCCBAA2312, Table 1, HT series, read-out: Minimum inhibitory concentration (MIC) Sa 12
[21] = ATCC700699, Table 1, HT series, replicates from different days separated by comma, read-out: Minimum inhibitory concentration (MIC) Sa 99
[22] = Table 1, HT series, read-out: Minimum inhibitory concentration (MIC) Sa UAMS
[23] = Table 1, HT series, read-out: Minimum inhibitory concentration (MIC) SA USA 300
[24] = ATCC700296, Table 1, HT series, read-out: Minimum inhibitory concentration (MIC) Se

Oc1ccc(-c2nc(-c3ccc4ccccc4c3)cs2)cc1O [Compound 14, 4-(4-(naphthalen-2-yl)thiazol-2-yl)benzene-1,2-diol]
2, 2, 2 μg/mL: Minimum inhibitory concentration (MIC) Sa 23 [2, 16] | Minimum inhibitory concentration (MIC) Sa 99 [8, 16]
4 µg/mL: MIC ([1]; Table 1, HT series)
16, 16, 16 μg/mL: Minimum inhibitory concentration (MIC) Efs 12 [4, 16]
16 µg/mL: MIC [4, 17]
2 µg/mL: MIC [2, 15] | MIC [8, 21]
8 µg/mL: MIC ([3]; Table 1, HT series) | MIC [5, 18] | MIC [6, 19] | MIC [7, 20] | MIC [9, 22]

Oc1ccc(-c2nc(-c3ccc(F)c(Cl)c3)cs2)cc1O [Compound 21, 4-(4-(3-chloro-4-fluorophenyl)thiazol-2-yl)benzene-1,2-diol]
16 µg/mL: MIC [10] | MIC [11] | MIC [12] | MIC [4, 17]
4 µg/mL: MIC ([3]; Table 1, HT series) | MIC [6, 19] | MIC [13, 23] | MIC [9, 22]
8 µg/mL: MIC [2, 15] | MIC [5, 18] | MIC [7, 20] | MIC [14, 24] | MIC [8, 21]

Oc1ccc(-c2nc(-c3ccc(Cl)c(Cl)c3)cs2)cc1O [Compound 31, 4-(4-(3,4-dichlorophenyl)thiazol-2-yl)benzene-1,2-diol]
4 µg/mL: MIC [2, 15] | MIC ([3]; Table 1, HT series) | MIC [5, 18] | MIC [6, 19] | MIC [7, 20] | MIC [13, 23] | MIC [14, 24] | MIC [8, 21] | MIC [9, 22]
16 µg/mL: MIC [10] | MIC [11] | MIC [12] | MIC [4, 17]

Oc1ccc(-c2nc(-c3ccc(Cl)cc3Cl)cs2)cc1 [Compound 34, 4-(4-(2,4-dichlorophenyl)thiazol-2-yl)phenol]
4 µg/mL: MIC [2, 15] | MIC ([3]; Table 1, HT series) | MIC [11] | MIC [5, 18] | MIC [6, 19] | MIC [7, 20] | MIC [13, 23] | MIC [14, 24] | MIC [8, 21] | MIC [9, 22]
8 µg/mL: MIC [10] | MIC [12] | MIC [4, 17]

Oc1ccc(-c2nc(-c3cc(C(F)(F)F)cc(C(F)(F)F)c3)cs2)cc1 [Compound 36, 4-(4-(3,5-bis(trifluoromethyl)phenyl)thiazol-2-yl)phenol]
2 µg/mL: MIC [10] | MIC [2, 15] | MIC ([3]; Table 1, HT series) | MIC [11] | MIC [12] | MIC [4, 17] | MIC [5, 18] | MIC [6, 19] | MIC [7, 20] | MIC [13, 23] | MIC [14, 24] | MIC [8, 21] | MIC [9, 22]

Oc1ccc(-c2nc(-c3cccc(Cl)c3)cs2)cc1 [Compound 38, 4-(4-(3-chlorophenyl)thiazol-2-yl)phenol]
8 µg/mL: MIC [10] | MIC [12] | MIC [4, 17]
4 µg/mL: MIC [2, 15] | MIC ([3]; Table 1, HT series) | MIC [11] | MIC [5, 18] | MIC [6, 19] | MIC [7, 20] | MIC [13, 23] | MIC [14, 24] | MIC [8, 21] | MIC [9, 22]

Oc1ccc(-c2nc(-c3ccc(C(F)(F)F)cc3)cs2)cc1 [Compound 39, 4-(4-(4(trifluoromethyl)phenyl)thiazol-2-yl)phenol]
2 µg/mL: MIC [2, 15] | MIC [7, 20] | MIC [14, 24]
32 µg/mL: MIC [12]
> 32 µg/mL: MIC [10] | MIC [4, 17]
4 µg/mL: MIC ([3]; Table 1, HT series) | MIC [11] | MIC [5, 18] | MIC [6, 19] | MIC [13, 23] | MIC [8, 21] | MIC [9, 22]

CN[C@H](CC(C)C)C(=O)N[C@H]1C(=O)N[C@@H](CC(N)=O)C(=O)N[C@H]2C(=O)N[C@H]3C(=O)N[C@H](C(=O)N[C@H](C(=O)O)c4cc(O)cc(O)c4-c4cc3ccc4O)[C@H](O)c3ccc(c(Cl)c3)Oc3cc2cc(c3O[C@@H]2O[C@H](CO)[C@@H](O)[C@H](O)[C@H]2O[C@H]2C[C@](C)(N)[C@H](O)[C@H](C)O2)Oc2ccc(cc2Cl)[C@H]1O [Vanc., Vancomycin, reference compound]
1 µg/mL: MIC [1] | MIC ([2]; ATCC25923, read-out: Minimum inhibitory concentration (MIC) Sa 23) | Minimum inhibitory concentration (MIC) Sa 23 ([2]; Table 2, HTM series) | MIC ([5]; ATCC33592, read-out: Minimum inhibitory concentration (MIC) Sa 92, Table 1, HT series) | MIC ([7]; ATCCBAA2312, read-out: Minimum inhibitory concentration (MIC) Sa 12, Table 1, HT series) | MIC ([13]; read-out: Minimum inhibitory concentration (MIC) Sa USA 300) | MIC ([9]; read-out: Minimum inhibitory concentration (MIC) Sa UAMS-1)
0.5 µg/mL: MIC ([7]; ATCCBAA2312, read-out: Minimum inhibitory concentration (MIC) Sa 12, Table 2, HTM series)
2 µg/mL: MIC [3] | Minimum inhibitory concentration (MIC) Sa Newman ([3]; Table 2, HTM series) | MIC ([4]; ATCC29212, read-out: Minimum inhibitory concentration (MIC) Efs 12, Table 1, HT series, replicates from different days separated by comma) | MIC ([5]; ATCC33592, read-out: Minimum inhibitory concentration (MIC) Sa 92, Table 2, HTM series) | MIC ([6]; ATCC33591, read-out: Minimum inhibitory concentration (MIC) Sa 91) | Minimum inhibitory concentration (MIC) Sa 91 ([6]; Table 2, HTM series) | MIC ([14]; ATCC700296, read-out: Minimum inhibitory concentration (MIC) Se) | MIC ([8]; ATCC700699, read-out: Minimum inhibitory concentration (MIC) Sa 99, Table 1, HT series, replicates from different days separated by comma) | MIC ([9]; read-out: Minimum inhibitory concentration (MIC) Sa UAMS)
4 µg/mL: MIC ([4]; ATCC29212, read-out: Minimum inhibitory concentration (MIC) Efs 12, Table 2, HTM series) | MIC ([8]; ATCC700699, read-out: Minimum inhibitory concentration (MIC) Sa 99, Table 2, HTM series)
